Measurements published in US5384417A, “Heptitols” (priority 1994, dated 1995).

What was measured:
Type in all cases: biochemical
β-Galactosidase = biological target: T1, β-Galactosidase (Homo sapiens, UniProt P16278); test: inhibition of human liver β-galactosidase; conditions: 1 mM inhibitor; read-out: % Inhibition of Glycosidase Activity, β-Galactosidase
T1 construct: Human liver glycosidases were assayed; from tissue; host or cells: human liver
T1 sequence (P16278 29-677): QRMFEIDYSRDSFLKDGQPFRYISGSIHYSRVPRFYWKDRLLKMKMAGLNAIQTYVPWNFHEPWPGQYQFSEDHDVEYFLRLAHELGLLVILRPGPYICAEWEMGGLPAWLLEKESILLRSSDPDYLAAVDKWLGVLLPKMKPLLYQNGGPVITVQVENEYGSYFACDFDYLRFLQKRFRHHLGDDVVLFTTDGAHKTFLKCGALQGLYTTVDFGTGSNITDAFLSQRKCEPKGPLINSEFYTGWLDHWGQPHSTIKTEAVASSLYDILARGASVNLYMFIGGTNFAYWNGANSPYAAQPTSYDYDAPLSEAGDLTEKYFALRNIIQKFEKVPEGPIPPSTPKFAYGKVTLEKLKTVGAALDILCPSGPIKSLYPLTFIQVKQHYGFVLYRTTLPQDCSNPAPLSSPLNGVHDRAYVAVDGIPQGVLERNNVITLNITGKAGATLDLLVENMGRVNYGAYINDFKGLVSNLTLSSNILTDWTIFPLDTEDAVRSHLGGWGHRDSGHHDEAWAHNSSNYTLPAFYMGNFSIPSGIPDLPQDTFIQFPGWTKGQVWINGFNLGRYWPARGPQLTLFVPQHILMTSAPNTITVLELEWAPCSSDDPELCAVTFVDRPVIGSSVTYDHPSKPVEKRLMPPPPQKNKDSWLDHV
Description: (§1) Human liver glycosidases were assayed in the absence and presence [1 mM] of each of the potential inhibitors, using the appropriate buffered 4-methylumbelliferyl glycosides as substrates, as previously described.^17 See Table I, below.

Lysosomal α-Mannosidase = biological target: T2, Lysosomal α-Mannosidase (Homo sapiens, UniProt O00754); test: inhibition of human liver lysosomal α-mannosidase; conditions: for inhibition at 1000 µM: 1 mM inhibitor, read-out: % Inhibition of Glycosidase Activity, α-Mannosidase Lysosomal
T2 construct: Human liver glycosidases were assayed; from tissue; host or cells: human liver
T2 sequence (O00754 50-1011): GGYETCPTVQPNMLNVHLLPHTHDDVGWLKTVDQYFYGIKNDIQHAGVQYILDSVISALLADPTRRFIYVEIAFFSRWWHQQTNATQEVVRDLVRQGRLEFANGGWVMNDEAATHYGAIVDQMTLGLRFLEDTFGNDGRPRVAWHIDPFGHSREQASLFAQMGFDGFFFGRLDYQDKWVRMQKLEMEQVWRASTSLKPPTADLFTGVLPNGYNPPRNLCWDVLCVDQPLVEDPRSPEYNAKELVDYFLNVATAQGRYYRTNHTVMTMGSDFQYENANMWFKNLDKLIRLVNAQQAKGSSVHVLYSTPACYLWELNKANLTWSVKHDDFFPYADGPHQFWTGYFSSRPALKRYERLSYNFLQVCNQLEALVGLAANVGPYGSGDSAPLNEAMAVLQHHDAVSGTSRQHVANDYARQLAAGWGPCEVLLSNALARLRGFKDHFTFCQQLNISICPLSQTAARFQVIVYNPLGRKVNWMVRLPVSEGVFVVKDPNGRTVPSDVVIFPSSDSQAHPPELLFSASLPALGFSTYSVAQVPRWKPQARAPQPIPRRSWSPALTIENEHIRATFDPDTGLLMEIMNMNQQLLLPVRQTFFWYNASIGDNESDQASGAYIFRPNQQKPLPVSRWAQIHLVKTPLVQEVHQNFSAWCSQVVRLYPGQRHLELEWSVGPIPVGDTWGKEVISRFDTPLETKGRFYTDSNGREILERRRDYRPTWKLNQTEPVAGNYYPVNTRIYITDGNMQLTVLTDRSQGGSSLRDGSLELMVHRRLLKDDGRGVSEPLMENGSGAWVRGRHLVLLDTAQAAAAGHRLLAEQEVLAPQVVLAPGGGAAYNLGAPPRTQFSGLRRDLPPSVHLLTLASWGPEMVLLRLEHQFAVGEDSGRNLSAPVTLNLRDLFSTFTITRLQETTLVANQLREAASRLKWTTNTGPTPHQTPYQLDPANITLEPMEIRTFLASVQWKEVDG
Description: as §1

Neutral α-Mannosidase = biological target: T3, Neutral α-Mannosidase (Homo sapiens, UniProt Q9NTJ4); test: inhibition of human liver neutral α-mannosidase; conditions: for inhibition at 1000 µM: 1 mM inhibitor, read-out: % Inhibition of Glycosidase Activity, α-Mannosidase Neutral
T3 construct: Human liver glycosidases were assayed; from tissue; host or cells: human liver
T3 sequence (Q9NTJ4 1-1040): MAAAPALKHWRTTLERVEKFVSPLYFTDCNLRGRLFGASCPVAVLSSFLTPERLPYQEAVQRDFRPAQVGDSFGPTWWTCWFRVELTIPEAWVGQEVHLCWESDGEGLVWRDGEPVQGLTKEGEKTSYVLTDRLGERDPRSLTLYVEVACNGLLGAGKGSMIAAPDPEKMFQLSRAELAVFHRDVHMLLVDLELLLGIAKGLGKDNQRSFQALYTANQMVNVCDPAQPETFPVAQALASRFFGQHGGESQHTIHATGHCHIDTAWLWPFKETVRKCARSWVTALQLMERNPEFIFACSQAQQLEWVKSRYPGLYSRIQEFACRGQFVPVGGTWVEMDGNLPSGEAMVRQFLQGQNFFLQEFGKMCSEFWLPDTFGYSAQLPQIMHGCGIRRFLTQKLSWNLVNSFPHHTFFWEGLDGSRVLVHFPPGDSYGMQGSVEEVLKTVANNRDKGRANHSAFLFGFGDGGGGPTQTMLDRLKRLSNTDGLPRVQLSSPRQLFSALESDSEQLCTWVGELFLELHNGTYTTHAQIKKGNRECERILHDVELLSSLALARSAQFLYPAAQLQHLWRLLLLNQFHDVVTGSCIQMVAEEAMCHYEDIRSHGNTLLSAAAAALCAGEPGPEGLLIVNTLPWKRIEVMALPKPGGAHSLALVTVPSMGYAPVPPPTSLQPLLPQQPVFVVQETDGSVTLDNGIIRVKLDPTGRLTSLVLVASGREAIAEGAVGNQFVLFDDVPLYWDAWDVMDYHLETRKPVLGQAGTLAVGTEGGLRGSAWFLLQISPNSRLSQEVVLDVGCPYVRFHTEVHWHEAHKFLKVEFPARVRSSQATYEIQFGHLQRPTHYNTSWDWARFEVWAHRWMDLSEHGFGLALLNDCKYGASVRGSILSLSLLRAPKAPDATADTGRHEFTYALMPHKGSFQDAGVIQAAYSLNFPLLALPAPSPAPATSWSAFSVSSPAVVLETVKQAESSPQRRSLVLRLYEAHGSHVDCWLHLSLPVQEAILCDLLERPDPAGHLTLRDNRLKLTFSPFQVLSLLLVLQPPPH
Description: as §1

SMILES	inhibition at 1000 µM (β-Galactosidase)	inhibition at 1000 µM (Lysosomal α-Mannosidase)	inhibition at 1000 µM (Neutral α-Mannosidase)	inhibition of lysosomal α-mannosidase (in words) (Lysosomal α-Mannosidase; compared with DIM (3))	inhibition of neutral α-mannosidase (in words) (Neutral α-Mannosidase; compared with DIM (3))
OC[C@@H](O)[C@H]1NC[C@@H](O)[C@H]1O [DIM (3)]	76%	97%	89%		
OC[C@H]1NC[C@@H](O)[C@@H](O)[C@@H]1O [DMJ (1), deoxymannojirimycin]		58%	30%		
NC[C@H]1O[C@H]([C@H](O)CO)[C@H](O)[C@@H]1O [Manhepamine (5), 1-amino-2,5-anhydro-1-deoxy-D-glycero-D-talo-heptitol]	0%	2%	2%		
OC[C@@H](O)[C@H]1N[C@H](CO)[C@@H](O)[C@H]1O [αHomoDIM (4), 2,5-dideoxy-2,5-imino-D-glycero-D-talo-heptitol]	35%	71%	76%	decreases the inhibition of the lysosomal and neutral enzymes	decreases the inhibition of the lysosomal and neutral enzymes
OC[C@H]1N[C@H](CO)[C@@H](O)C(O)[C@@H]1O (stereo partly shown) [αHomoDMJ (2)]	0%	49%	33%		
